# Laboratory results taken from US11040081B2 (CORPORATION GENACOL CANADA INC., priority 2016, dated 2021).
# Assays:
# [1] = test system: patients diagnosed with osteoarthritis of the knee; assay: Filipino study: radiographic medial knee joint space width; format: in vivo, human; conditions: weight-bearing anteroposterior radiograph
# Method: Group A subjects were given the oral collagen supplement (Genacol®, Blainville, Qc, Canada) 400 mg/capsule, 3 capsules daily at bedtime for 6 months, and a topical analgesic needed for knee pain. Group B, the control group, received the standard treatment using an oral non-steroidal inflammatory drug, in the form of aceclofenac 100 mg/tablet, 1 tablet twice a day for 5 days initially then as needed for pain, and topical analgesic (ketoprofen gel) to be applied twice a day as needed for pain. Both groups underwent physical therapy three times a week for two weeks. Heating modalities, range of motion exercises, and muscle strengthening exercises were administered on each therapy session. Follow up evaluation was done every month. On the sixth month of follow up, repeat radiography evaluation of the involved knee was done to determine if there were any changes in the knee joint. Compliance to the study medication was determined by asking the patient on their missed doses and by counting the remaining unconsumed capsules. […] Using a standard ruler in millimeters, one experienced radiologist who was blinded as to the treatment of each subject measured the narrowest medial compartment of the tibiofemoral joint of each radiographed knee done at the start of the study. […]
# [2] = test system: patients diagnosed with osteoarthritis of the knee; assay: Filipino study: WOMAC osteoarthritis index, Likert version; format: in vivo, human; conditions: Likert 0-4
# Method: Experimental, randomized, single blind observer, open-labeled, controlled trial. […] Group A subjects were given the oral collagen supplement (Genacol®, Blainville, Qc, Canada) 400 mg/capsule, 3 capsules daily at bedtime for 6 months, and a topical analgesic needed for knee pain. Group B, the control group, received the standard treatment using an oral non-steroidal inflammatory drug, in the form of aceclofenac 100 mg/tablet, 1 tablet twice a day for 5 days initially then as needed for pain, and topical analgesic (ketoprofen gel) to be applied twice a day as needed for pain. Both groups underwent physical therapy three times a week for two weeks. Heating modalities, range of motion exercises, and muscle strengthening exercises were administered on each therapy session. Follow up evaluation was done every month. On the sixth month of follow up, repeat radiography evaluation of the involved knee was done to determine if there were any changes in the knee joint. Compliance to the study medication was determined by asking the patient on their missed doses and by counting the remaining unconsumed capsules. Symptoms of osteoarthritis were assessed using the Western Ontario and McMaster Universities (WOMAC) osteoarthritis index, a validated and disease-specific questionnaire separately addressing severity of joint pain (5 questions), stiffness (2 questions), and limitation of physical function (17 questions) in the 48 hours before assessment. The Likert Version of WOMAC is rated on an ordinal scale of 0 to 4 with lower scores indicating lower levels of symptoms or physical disability. […] There is also an index score or global score, which is most commonly calculated by summating the scores for the 3 subscales. The questionnaire is self administered and takes 5 to 10 minutes to complete. Data was presented as mean±SD or frequency and percent distribution whichever was applicable. Chi square test was performed to indicate any significant difference in the distribution of male and female patients between the two groups while t-test was performed to check for any significant difference in characteristics that were continuous variables. Paired sample t-test was used to compare the significance in change in values (WOMAC and medial knee joint space) of the two groups from baseline to the sixth month follow up.
smiles,measurement,setting,value
"O=C(O)COC(=O)Cc1ccccc1Nc1c(Cl)cccc1Cl [Group B, aceclofenac]","Median Knee Joint Space, mean",[1]; 6th ff-up (sixth month),3.8 mm
same,"Median Knee Joint Space, mean",[1]; Baseline,4.3 mm
same,"WOMAC Score, mean",[2]; 2nd ff-up (monthly follow-up),2.42
same,"WOMAC Score, mean",[2]; 3rd ff-up (monthly follow-up),2.29
same,"WOMAC Score, mean",[2]; 4th ff-up (monthly follow-up),2.26
same,"WOMAC Score, mean",[2]; 5th ff-up (monthly follow-up),2.17
same,"WOMAC Score, mean",[2]; 6th ff-up (sixth month),1.87
same,"WOMAC Score, mean","[2]; Baseline, Group A n=55, Group B n=58",2.91
